Earlier results on one molecule are cited in US6994864B2, “Composition containing 7-hydroxy DHEA and/or 7-keto DHEA and at least a carotenoid” (L'Oreal, priority 2000, dated 2006).

In one series the test system is skin of rats. As to conditions: on rats.

As for `C[C@]12CC[C@H](O)CC1=C[C@@H](O)[C@@H]1[C@@H]2CC[C@]2(C)C(=O)CC[C@@H]12` [7α-hydroxy-DHEA], the “proliferation of the fibroblasts” value in the series with fibroblasts is recorded as “increase”. In addition, the “viability of the human keratinocytes” value in the series on human keratinocytes was “increase”. In the series on skin of rats, the “elastin and collagen content of the skin” value is “increased”; the “thickness of the dermis” value is recorded as “increased”.
